Data from patent US20240109900A1, “AZABICYCLIC SHP2 INHIBITORS” (IRBM S.P.A., priority 2021, published 2024).

Experiments:
[1] = target: SHP-2 enzyme (Met1-Leu525) (Homo sapiens (Human), UniProt Q06124); assay: SHP2 inhibition enzymatic assay; type: biochemical; conditions: 0.5 nM SHP-2 activated by 500 nM IRS1 peptide, 75 μM DiFMUP substrate; read-out: SHP2wt-IC50
Procedure, shortened: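 SHP-2 (Met1-Leu525), 0.5 nM, activated with 500 nM IRS1 bis-phosphopeptide, preincubated 30 min with compounds in HEPES pH 7.2 buffer with 5 mM DTT. 75 μM DiFMUP added for 30 min at room temperature, stopped with bpV; fluorescence read. IC50 from four-parameter logistic fit of % inhibition.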

[2] = test system: ERK phosphorylation in KYSE-520 cells; assay: Phospho-ERK cellular assay; type: cell-based; conditions: Homo sapiens, KYSE-520, 2 h, KYSE-520 cells, 2 h at 37° C., phospho-ERK1/2 (Thr202/Tyr204) TR-FRET; read-out: PERK IC50
Procedure, shortened: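 TR-FRET read-out of ERK1/2 Thr202/Tyr204 phosphorylation was taken after overnight antibody incubation at room temperature. Before that, KYSE-520 cells were treated 2 h at 37 °C with compound dilutions and lysed 30 min. Percent inhibition relative to vehicle and cell-free wells was fitted four-parametrically to give IC50.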

Chain of SHP-2 enzyme (Met1-Leu525) (Q06124 1-525): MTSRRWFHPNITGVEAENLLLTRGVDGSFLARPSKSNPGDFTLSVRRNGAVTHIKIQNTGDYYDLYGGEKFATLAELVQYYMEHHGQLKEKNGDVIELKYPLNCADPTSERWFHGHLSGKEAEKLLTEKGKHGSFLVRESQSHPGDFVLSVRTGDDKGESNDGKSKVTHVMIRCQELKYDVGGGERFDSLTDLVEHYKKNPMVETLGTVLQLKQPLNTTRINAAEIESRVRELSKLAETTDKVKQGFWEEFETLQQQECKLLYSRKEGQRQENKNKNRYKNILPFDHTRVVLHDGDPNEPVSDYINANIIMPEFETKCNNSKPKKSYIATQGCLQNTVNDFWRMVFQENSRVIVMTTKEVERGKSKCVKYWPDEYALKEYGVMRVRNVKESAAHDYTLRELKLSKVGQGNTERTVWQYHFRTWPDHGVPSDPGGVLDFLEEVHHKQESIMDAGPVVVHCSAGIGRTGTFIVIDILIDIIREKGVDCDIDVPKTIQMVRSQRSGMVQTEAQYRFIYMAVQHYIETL

SMILES	IC50 [1] [nM]	IC50 [2] [nM]
NC[C@]1(c2ccccc2F)[C@@H]2CCN(c3cnc4c(-c5ccc6c(c5Cl)NC(=O)CO6)n[nH]c4n3)C[C@@H]21 [Example 207, 6-(6-((1S,6R,7R)-7-(aminomethyl)-7-(2-fluorophenyl)-3-azabicyclo[4.1.0]heptan-3-yl)-1H-pyrazolo[3,4-b]pyrazin-3-yl)-5-chloro-2H-benzo[b][1,4]oxazin-3(4H)-one]	< 500	< 1000
CCn1cc2c(Cl)c(-c3n[nH]c4nc(N5CC[C@@H]6[C@H](C5)[C@@]6(CN)c5ccccc5F)cnc34)ccc2n1 [Example 208, ((1S,6R,7R)-3-(3-(4-chloro-2-ethyl-2H-indazol-5-yl)-1H-pyrazolo[3,4-b]pyrazin-6-yl)-7-(2-fluorophenyl)-3-azabicyclo[4.1.0]heptan-7-yl)methanamine]	< 500	< 1000
NC[C@]1(c2ccccc2F)[C@@H]2CCN(c3cnc4c(-c5cccc6c(=O)[nH]ccc56)n[nH]c4n3)C[C@@H]21 [Example 209, 5-(6-((1S,6R,7R)-7-(aminomethyl)-7-(2-fluorophenyl)-3-azabicyclo[4.1.0]heptan-3-yl)-1H-pyrazolo[3,4-b]pyrazin-3-yl)isoquinolin-1(2H)-one]	< 500	< 1000
NC[C@]1(c2ccccc2F)[C@@H]2CCN(c3cnc4c(-c5cccc6[nH]c(=O)ccc56)n[nH]c4n3)C[C@@H]21 [Example 210, 5-(6-((1S,6R,7R)-7-(aminomethyl)-7-(2-fluorophenyl)-3-azabicyclo[4.1.0]heptan-3-yl)-1H-pyrazolo[3,4-b]pyrazin-3-yl)quinolin-2(1H)-one]	< 500	< 1000
Cc1c(-c2n[nH]c3nc(N4CC[C@@H]5[C@H](C4)[C@@]5(CN)c4ccccc4F)cnc23)ccn2cnnc12 [Example 211, ((1S,6R,7R)-7-(2-fluorophenyl)-3-(3-(8-methyl-[1,2,4]triazolo[4,3-a]pyridin-7-yl)-1H-pyrazolo[3,4-b]pyrazin-6-yl)-3-azabicyclo[4.1.0]heptan-7-yl)methanamine]	< 500	> 5000
CN(C)C(=O)c1ccc(-c2n[nH]c3nc(N4CC[C@@H]5[C@H](C4)[C@@]5(CN)c4ccccc4F)cnc23)c2cccnc12 [Example 212, 5-(6-((1S,6R,7R)-7-(aminomethyl)-7-(2-fluorophenyl)-3-azabicyclo[4.1.0]heptan-3-yl)-1H-pyrazolo[3,4-b]pyrazin-3-yl)-N,N-dimethylquinoline-8-carboxamide]	< 500	> 5000
Cc1csc([C@@]2(CN)[C@@H]3CN(c4cnc5c(-c6ccc(F)c7ncccc67)n[nH]c5n4)C[C@@H]32)n1 [Example 213, ((1R,5S,6r)-3-(3-(8-fluoroquinolin-5-yl)-1H-pyrazolo[3,4-b]pyrazin-6-yl)-6-(4-methylthiazol-2-yl)-3-azabicyclo[3.1.0]hexan-6-yl)methanamine]	< 500	< 1000
COc1ccc(-c2n[nH]c3nc(N4CC[C@@H]5[C@H](C4)[C@@]5(CN)c4ccccc4F)cnc23)nc1N [Example 214, 6-(6-((1S,6R,7R)-7-(aminomethyl)-7-(2-fluorophenyl)-3-azabicyclo[4.1.0]heptan-3-yl)-1H-pyrazolo[3,4-b]pyrazin-3-yl)-3-methoxypyridin-2-amine]	< 500	> 5000
Cn1ccc(Oc2ccc(-c3n[nH]c4nc(N5CC[C@@H]6[C@H](C5)[C@@]6(CN)c5ccccc5F)cnc34)c(Cl)c2Cl)n1 [Example 215, ((1S,6R,7R)-3-(3-(2,3-dichloro-4-((1-methyl-1H-pyrazol-3-yl)oxy)phenyl)-1H-pyrazolo[3,4-b]pyrazin-6-yl)-7-(2-fluorophenyl)-3-azabicyclo[4.1.0]heptan-7-yl)methanamine]	< 500	< 1000
